Read-outs that look alike come from different tables or passages of the source. Blank lines part the entries; values can stand above or below the compound they belong to.
Assays:
[1] = tested on: human mixed lymphocyte reaction (MLR); assay: Human mixed lymphocyte reaction (MLR) assay; assay type: cell-based; conditions: read-out: Human MLR IC50 ± S.E.M.
[2] = Pharmacokinetics after single intravenous dose in cynomolgus monkey; assay type: in vivo; conditions: for t1/2: terminal elimination, single 2.5 mg/kg intravenous dose, blood; for Terminal elimination half-life compared to rapamycin: cynomolgus monkey, intravenous
[3] = Six-hour elution from PC1036-coated coupons (FIG. 10-13); assay type: physicochemical; conditions: for Amount released from coupon: after 6 hours, pH 7.4 PBS, 37° C.; for Amount remaining on coupon: six-hour elution
Experimental: Prior to any experimentation, coated stainless steel coupons were prepared. These coupons were 316 L electropolished stainless steel discs (10 mm diameter). This size was chosen because the surface area of one side of the coupon is similar to the surface area of a 15-mm open cell BiodivYsio stent. […]. The cleaning was a two-step process in which the coupons are sonicated for 3 minutes in dichloromethylene and 3 minutes in ethanol. The coupons were allowed to dry at room temperature. One side of the coupon was coated using a filtered 20-mg/mL solution of phosphoryl choline polymer PC1036 (product of Biocompatibles Ltd., Farnham, Surrey, UK) in ethanol. Twenty μL PC solution was placed onto the coupon using a gas tight glass syringe, ensuring that the entire surface was coated but not spilling over the sides of the coupon. The coupons were initially air dried and then cured at 70° C. for 16 hours. They were then sent for gamma irradiation at <25KGy. The resulting PC coating thickness was close to that of the stent and thick enough to accommodate the desired loaded drug dose, as graphically represented in FIG. 9A-B. FIG. 9A-B is a top and side view of a coated stainless steel coupon 30, having a PC-coating 20 on a electropolished stainless steel disc.
In these experiments, beneficial agents were loaded onto coupons and elution profiles examined. In general, the procedure is as follows. Twelve PC-coated coupons were loaded with each drug. The solutions of the drugs were usually 5.0 mg/mL in 100% ethanol and were filtered with a 0.45 μm filter prior to use.
The coupons were weighed before loading with the drug solution. To load 100 μg of drug, 20 μL of solution was placed (e.g., pipetted) on the center of the PC coated side of the coupon. The coupon was placed in a vial for 30 minutes with the lid closed to allow the drug to penetrate the coating. The lid was removed and the coupon was allowed to dry for an additional 90 minutes. To ensure that the coupon was completely dry, the coupon was weighed, and after 15 minutes the coupon was weighed a third time. When two weightings of the coupon were the same, the coupon was considered dry. The loaded, dry coupons were stored in a refrigerator protected from light.
For each drug, six coupons were used to evaluate the total amount of drug loaded by the above procedure. The coupons were immersed in 5 mL of 50% ethanol, 50% water solution and sonicated for 1 hour. The concentration of the drug in the extraction solution was analyzed by HPLC.
At the end of the elution experiments discussed below, the coupons were removed from the elution media and immersed in 5 mL of 50% ethanol, 50% water solution and sonicated for 1 hour. The concentration of the drug in these vials indicated the amount of the drug remaining in the coupons at the end of the elution experiments.
Six coated coupons of each drug were used for the elution experiments. The coupons were individually placed, coating side up, in small metal cups to hold the coupon and to allow movement to a new vial at each time point. The coupons were usually placed in a vial containing 10 mL of pH 7.4 phosphate buffered saline. The vials were stored in an orbital shaker, with horizontal shaking of 100 rpm, at 37° C. for at least 30 minutes before insertion of a coupon to allow the solution to equilibrate at the desired temperature. After the desired time had lapsed, the coupon holder was lifted and allowed to drain. It was then placed into a pre-warmed vial corresponding to the next time point. This procedure continued until the predetermined time had elapsed. At that point, the coupons went through a drug extraction step as outlined earlier. The amount of drug in the elution samples was determined by HPLC.

[4] = representative summary; cited from earlier work
[5] = Stability of dexamethasone on PC-coated stents in ETO sterilization (FIG. 16); assay type: physicochemical
[6] = Shake-flask aqueous solubility study of DES drugs (FIG. 20); conditions: for Aqueous solubility, rank order: amorphous DES drugs, dexamethasone crystalline
[7] = Transfer coefficient (P divided by S) of DES drugs (FIG. 21); assay type: physicochemical; conditions: P divided by equilibrium aqueous solubility S (μg/ml)
[8] = Shake-flask octanol/water partition coefficient study of DES drugs (FIG. 20); assay type: physicochemical
Experimental: “Solubility” is based on a standard measure used in medicinal chemistry. The octanol-water partition coefficient (P) is the ratio of distribution of a compound in a mixture of 1-octanol and H2O. Log P is the base 10 logarithm of the partition coefficient.
In the measurement of the partition coefficient (octanol/water), preliminary studies were conducted to determine the optimum drug concentration for each test, and the appropriate time for establishing the partition equilibrium. All experiments were carried out by two different analysts and on multiple drug lots.

[9] = Pig model, tissue and blood concentrations of zotarolimus eluted from ZoMaxx stents (FIG. 25); assay type: in vivo

IC50 [1]: 12.4 ± 5.3 nM
t1/2 [2]: 2.8 h
Compound: 40-epi-N-[2′-pyridone]-rapamycin [Example 2-pyridone]

Compound: CO[C@H]1C[C@@H]2CC[C@@H](C)[C@@](O)(O2)C(=O)C(=O)N2CCCC[C@H]2C(=O)O[C@H]([C@H](C)C[C@@H]2CC[C@H](n3ncnn3)[C@H](OC)C2)CC(=O)[C@H](C)/C=C(\C)[C@@H](O)[C@@H](OC)C(=O)[C@H](C)C[C@H](C)/C=C/C=C/C=C/1C (single isomer, unassigned; less polar) [Example 1, 42-Epi-(tetrazolyl)-rapamycin (less polar isomer)]
Terminal elimination half-life compared to rapamycin [2]: substantially shorter

Terminal elimination half-life compared to rapamycin [2]: substantially shorter
Compound: COC1CC2CCC(C)C(O)(O2)C(=O)C(=O)N2CCCCC2C(=O)OC(C(C)CC2CCC(n3cnnn3)C(OC)C2)CC(=O)C(C)C=C(C)C(O)C(OC)C(=O)C(C)CC(C)C=CC=CC=C1C (single isomer, unassigned; more polar) [Example 2, 42-Epi-(tetrazolyl)-rapamycin (more polar isomer)]

Amount released from coupon ([3]; in absence of zotarolimus): 50%
Amount released from coupon ([3]; in presence of zotarolimus): less than 10%
Compound: CCCCN(CCCC)C(=O)CN1C[C@H](c2ccc3c(c2)OCO3)[C@@H](C(=O)O)[C@@H]1c1ccc(OC)cc1.Cl [ABT-627, atrasentan]
LogP Values [4]: 3.4

Compound: COc1ccccc1OCCNCC(O)COc1cccc2[nH]c3ccccc3c12 (stereo not drawn) [Carvedilol]
LogP Values [4]: 1.97

Compound: C#C[C@]1(O)CC[C@H]2[C@@H]3CCC4=Cc5oncc5C[C@]4(C)[C@H]3CC[C@@]21C [Danazol]
LogP Values [4]: 4.5

Amount remaining on coupon ([3]; coupon containing zotarolimus): ~70%
Amount remaining on coupon ([3]; no zotarolimus present): 25%
Degradation in ETO sterilization environment ([5]; dexamethasone-only coating): degraded
Degradation in ETO sterilization environment ([5]; loaded in combination with zotarolimus, 1-to-1 ratio): did not degrade
Compound: C[C@@H]1C[C@H]2[C@@H]3CCC4=CC(=O)C=C[C@]4(C)[C@@]3(F)[C@@H](O)C[C@]2(C)[C@@]1(O)C(=O)CO [Dexamethasone]
LogP Values [4]: ~1.9-2.2
Aqueous solubility, rank order [6]: increasing order: paclitaxel, zotarolimus, rapamycin, and dexamethasone (crystalline)

Amount released from coupon ([3]; in absence of zotarolimus): ~90%
Amount released from coupon ([3]; in presence of zotarolimus): about 52%
Compound: OCCN(CCO)c1nc(N2CCCCC2)c2nc(N(CCO)CCO)nc(N3CCCCC3)c2n1 [Dipyridamole]

IC50 [1]: 0.43 ± 0.2 nM
t1/2 [2]: 13.3 h
Compound: COC1CC2CCC(C)C(O)(O2)C(=O)C(=O)N2CCCCC2C(=O)OC(C(C)CC2CCC(n3ccc(=O)cc3)C(OC)C2)CC(=O)C(C)C=C(C)C(O)C(OC)C(=O)C(C)CC(C)C=CC=CC=C1C (stereo not drawn) [Example 4-pyridone, 40-epi-N-[4′-pyridone]-rapamycin]

Compound: CC(C)OC(=O)C(C)(C)Oc1ccc(C(=O)c2ccc(Cl)cc2)cc1 [Fenofibrate]
LogP Values [4]: >4.5

Compound: CCCCC/C=C\C/C=C\CCCCCCCC(=O)O [Linoleic acid]
LogP Values [4]: >6

Compound: CC/C=C\C/C=C\C/C=C\CCCCCCCC(=O)O [Linolenic acid]
LogP Values [4]: >6

Compound: CCCCCCCC/C=C\CCCCCCCC(=O)O [Oleic acid]
LogP Values [4]: >6

Compound: CC(=O)O[C@H]1C(=O)[C@@]2(C)[C@H]([C@H](OC(=O)c3ccccc3)[C@]3(O)C[C@H](OC(=O)[C@H](O)[C@@H](NC(=O)c4ccccc4)c4ccccc4)C(C)=C1C3(C)C)[C@]1(OC(C)=O)CO[C@@H]1C[C@@H]2O [Paclitaxel]
Transfer coefficient, rank order [7]: zotarolimus>>paclitaxel>>rapamycin>dexamethasone
Aqueous solubility, rank order [6]: increasing order: paclitaxel, zotarolimus, rapamycin, and dexamethasone (crystalline)

Compound: O=C(Oc1ccccc1)c1ccccc1O [Phenyl salicylate]
LogP Values [4]: 4.1

Compound: CC(C)(Sc1cc(C(C)(C)C)c(O)c(C(C)(C)C)c1)Sc1cc(C(C)(C)C)c(O)c(C(C)(C)C)c1 [Probucol]
LogP Values [4]: >8

Compound: CC(=O)[C@H]1CC[C@H]2[C@@H]3CCC4=CC(=O)CC[C@]4(C)[C@H]3CC[C@]12C [Progesterone]
LogP Values [4]: 3.2

Compound: CO[C@H]1C[C@@H]2CC[C@@H](C)[C@@](O)(O2)C(=O)C(=O)N2CCCC[C@H]2C(=O)O[C@H]([C@H](C)C[C@@H]2CC[C@@H](O)[C@H](OC)C2)CC(=O)[C@H](C)/C=C(\C)[C@@H](O)[C@@H](OC)C(=O)[C@H](C)C[C@H](C)/C=C/C=C/C=C/1C [Rapamycin]
Lipophilicity rank among DES drugs tested [8]: the most lipophilic compounds in the group tested
Transfer coefficient, rank order [7]: zotarolimus>>paclitaxel>>rapamycin>dexamethasone
IC50 ([1]; Homo sapiens, Lymphocyte): 0.91 ± 0.36 nM
LogP Values [4]: >4.5
Aqueous solubility, rank order [6]: increasing order: paclitaxel, zotarolimus, rapamycin, and dexamethasone (crystalline)

Compound: CCCCCCCCCCCCCCCCCC(=O)O [Stearic acid]
LogP Values [4]: >6

Compound: C=CC[C@@H]1/C=C(\C)C[C@H](C)C[C@H](OC)[C@H]2O[C@@](O)(C(=O)C(=O)N3CCCC[C@H]3C(=O)O[C@H](/C(C)=C/[C@@H]3CC[C@@H](O)[C@H](OC)C3)[C@H](C)[C@@H](O)CC1=O)[C@H](C)C[C@@H]2OC [Tacrolimus]
LogP Values [4]: >4.5

Compound: CC[C@]1(O)C[C@@H]2CN(CCc3c([nH]c4ccccc34)[C@@](C(=O)OC)(c3cc4c(cc3OC)N(C)[C@H]3[C@@](O)(C(=O)OC)[C@H](OC(C)=O)[C@]5(CC)C=CCN6CC[C@]43[C@@H]65)C2)C1 [Vinblastine]
LogP Values [4]: 3.6

Compound: CC[C@]1(O)C[C@H]2CN(CCc3c([nH]c4ccccc34)[C@@](C(=O)OC)(c3cc4c(cc3OC)N(C=O)[C@H]3[C@@](O)(C(=O)OC)[C@H](OC(C)=O)[C@]5(CC)C=CCN6CC[C@]43[C@@H]65)C2)C1 [Vincristine]
LogP Values [4]: 2.6

Compound: CC[C@]1(O)C[C@@H]2CN(CCc3c([nH]c4ccccc34)[C@@](C(=O)OC)(c3cc4c(cc3OC)N(C)[C@H]3[C@@](O)(C(N)=O)[C@H](O)[C@]5(CC)C=CCN6CC[C@]43[C@@H]65)C2)C1 [Vindesine]
LogP Values [4]: 1.3

Compound: CO[C@H]1C[C@@H]2CC[C@@H](C)[C@@](O)(O2)C(=O)C(=O)N2CCCC[C@H]2C(=O)O[C@H]([C@H](C)C[C@@H]2CC[C@H](n3cnnn3)[C@H](OC)C2)CC(=O)[C@H](C)/C=C(\C)[C@@H](O)[C@@H](OC)C(=O)[C@H](C)C[C@H](C)/C=C/C=C/C=C/1C [Zotarolimus]
Lipophilicity rank among DES drugs tested [8]: the most lipophilic of all DES drugs tested
Transfer coefficient, rank order [7]: zotarolimus>>paclitaxel>>rapamycin>dexamethasone
Concentration in arterial tissue adjacent to stent placement ([9]; all periods out to 28 days): substantial concentrations
Concentration in distal, unstented and subjacent myocardium and unstented and distal coronary arteries ([9]; throughout 28 days): therapeutically significant concentrations
LogP Values [4]: >4.5
Aqueous solubility, rank order [6]: increasing order: paclitaxel, zotarolimus, rapamycin, and dexamethasone (crystalline)
Solubility in water compared with amorphous rapamycin ([6]; shake-flask): much less soluble in water than amorphous rapamycin
